Values joined by “and” are separate entries in the source; they are usually repeats but may differ in a detail not shown here. Equal entries are not always repeated.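 Dose response: 5 concentrations. Exposure: 48 h. Format: 96-well plates. Endpoint: linear interpolation; highest concentration if not reached. GI50 marks 50% less growth. TGI: total growth inhibition.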
How the values were obtained:
Test in all cases: growth of human tumour cells (NCI), 48 h
[1] = tested on: SN12C renal
[2] = tested on: SF-295 CNS
[3] = tested on: SK-OV-3 ovarian
[4] = tested on: NCI-H226 lung
[5] = tested on: SNB-19 CNS
[6] = tested on: HCC-2998 colon
[7] = tested on: SF-268 CNS
[8] = tested on: PC-3 prostate
[9] = tested on: UACC-62 melanoma
[10] = tested on: T-47D breast

SMILES: Cc1nnn(C)c1-c1cnc2c3ccc(C(C)(C)O)cc3n([C@H](c3ccccc3)C3CCOCC3)c2c1
- GI50 [1]: 1.4 µM
- TGI [1]: > 74.9 µM
- GI50 [2]: 0.0555 µM
- TGI [2]: 20.5 µM
- GI50 [3]: < 0.01 µM
- TGI [3]: 16.4 µM
- GI50 [4]: 0.356 µM
- TGI [4]: 23.4 µM
- GI50 [5]: 0.0395 µM
- TGI [5]: > 100 µM
- GI50 [6]: 0.0356 µM
- TGI [6]: 3.98 µM
- GI50 [7]: 5.22 µM
- TGI [7]: > 100 µM
- GI50 [8]: 0.765 µM
- TGI [8]: > 100 µM
- GI50 [9]: < 0.01 µM
- TGI [9]: 12.7 µM
- GI50 [10]: 0.0104 µM
- TGI [10]: > 100 µM

SMILES: COc1cc2c(cc1OC)[C@@H]1C(=O)c3ccc4c(c3O[C@@H]1CO2)C[C@H](C(C)C)O4
- GI50 [1]: 10.6 µM
- TGI [1]: > 76.8 µM
- GI50 [2]: 0.294 µM
- GI50 [3]: 14.4 µM
- TGI [3]: > 81.8 µM
- GI50 [4]: 8.89 µM
- TGI [4]: > 100 µM
- GI50 [5]: 9.74 µM
- TGI [5]: > 78.1 µM
- GI50 [6]: 4.09 µM
- TGI [6]: > 61.6 µM
- GI50 [7]: 11.7 µM
- TGI [7]: > 62.2 µM
- GI50 [8]: 1.98 µM
- TGI [8]: > 30.5 µM
- GI50 [9]: 9.24 µM
- TGI [9]: > 100 µM
- GI50 [10]: 0.175 µM
- TGI [10]: > 60.6 µM

SMILES: CCNCC(=O)Nc1ccc2c(c1)C(=O)c1ccc(NC(=O)CNCC)cc1C2=O
- TGI [1]: 6.45 µM
- TGI [2]: 14.2 µM
- TGI [3]: 9.48 µM
- TGI [4]: 20 µM
- TGI [5]: 12.1 µM
- TGI [6]: 3.75 µM
- TGI [7]: 16.6 µM
- TGI [8]: > 100 µM
- TGI [9]: 17.8 µM
- TGI [10]: 17.1 µM

SMILES: CCc1cc2c(c(OCC(F)(F)F)c(C(=O)NC3CCN(C(=O)CO)CC3)n2C)c(=O)n1CC(=O)c1ccccc1
- GI50 [1]: > 100 µM
- TGI [1]: > 100 µM
- GI50 [2]: 34.7 µM
- TGI [2]: > 100 µM
- GI50 [3]: > 100 µM
- TGI [3]: > 100 µM
- GI50 [4]: 97 µM
- TGI [4]: > 100 µM
- GI50 [5]: > 100 µM
- TGI [5]: > 100 µM
- GI50 [6]: > 78 µM
- TGI [6]: > 100 µM
- GI50 [7]: > 90.3 µM
- TGI [7]: > 100 µM
- GI50 [8]: > 73.5 µM
- TGI [8]: > 100 µM
- GI50 [9]: 57.8 µM
- TGI [9]: > 100 µM
- GI50 [10]: > 65.9 µM
- TGI [10]: > 100 µM

SMILES: COC(=O)[C@H](Cc1cn(C)cn1)NC(=O)[C@H](CC(C)C)NC(=O)Nc1cc(C(F)(F)F)cc(C(F)(F)F)c1
- GI50 [1]: 6.69 µM
- TGI [1]: > 10 µM
- GI50 [2]: > 10 µM
- TGI [2]: > 10 µM
- GI50 [3]: > 10 µM
- TGI [3]: > 10 µM
- GI50 [4]: > 10 µM
- TGI [4]: > 10 µM
- GI50 [5]: > 10 µM
- TGI [5]: > 10 µM
- GI50 [6]: 5.62 µM
- TGI [6]: > 10 µM
- GI50 [7]: 3.16 µM
- TGI [7]: > 10 µM
- GI50 [8]: 4.64 µM
- TGI [8]: > 10 µM
- GI50 [9]: > 10 µM
- TGI [9]: > 10 µM
- GI50 [10]: 6.56 µM
- TGI [10]: > 10 µM

SMILES: CC(=O)O[C@@H]1c2c(c3c(=O)c4cccc(O)c4c(=O)c=3c2=[N+]=[N-])[C@H](OC(C)=O)[C@@H](OC(C)=O)[C@]1(C)O
- GI50 [1]: 0.236 µM and 0.0851 µM
- TGI [1]: 0.815 µM and 0.288 µM
- GI50 [2]: 0.785 µM
- TGI [2]: 1.5 µM and 1.56 µM
- GI50 [3]: 1.01 µM
- TGI [3]: 2.11 µM and 2 µM
- GI50 [4]: 0.617 µM
- TGI [4]: 1.45 µM and 2.18 µM
- GI50 [5]: 0.689 µM
- TGI [5]: 2.35 µM and 3.51 µM
- GI50 [6]: 0.358 µM
- TGI [6]: 0.522 µM and 1.22 µM
- GI50 [7]: 0.391 µM
- TGI [7]: 0.914 µM and 1.67 µM
- GI50 [8]: 0.236 µM
- TGI [8]: 1.14 µM and 1 µM
- GI50 [9]: 0.297 µM
- TGI [9]: 1.35 µM and 1.02 µM
- GI50 [10]: 0.132 µM and 0.317 µM
- TGI [10]: 0.649 µM and 1.39 µM

SMILES: Clc1ccc(-c2cnc3c(-c4ccnc(N5CCNCC5)c4)cnn3c2)cc1
- GI50 [1]: 1.7 µM
- TGI [1]: 3.34 µM
- GI50 [2]: 1.88 µM
- TGI [2]: 3.57 µM
- GI50 [3]: 2.72 µM
- TGI [3]: 5.63 µM
- GI50 [4]: 21.4 µM
- TGI [4]: 44.7 µM
- GI50 [5]: 2.02 µM
- TGI [5]: 4.03 µM
- GI50 [6]: 2.02 µM
- TGI [6]: 3.51 µM
- GI50 [7]: 1.91 µM
- TGI [7]: 3.69 µM
- GI50 [8]: 1.85 µM
- TGI [8]: 5.72 µM
- GI50 [9]: 2.06 µM
- TGI [9]: 3.91 µM
- GI50 [10]: 1.82 µM
- TGI [10]: 3.8 µM

SMILES: COc1ccc(C2c3ccc4ccccc4c3Oc3ncn(CCCn4ccnc4)c(=N)c32)cc1OC (centres undefined)
- GI50 [1]: 3.64 µM
- TGI [1]: 17.7 µM
- GI50 [2]: 4.35 µM
- TGI [2]: 19.9 µM
- GI50 [3]: 5.8 µM
- TGI [3]: 18.4 µM
- GI50 [4]: 9.16 µM
- TGI [4]: 27.1 µM
- GI50 [5]: 11.2 µM
- TGI [5]: 26.7 µM
- GI50 [6]: 3.45 µM
- TGI [6]: 11.2 µM
- GI50 [7]: 3.52 µM
- TGI [7]: 13.8 µM
- GI50 [8]: 3.23 µM
- TGI [8]: 12.9 µM
- GI50 [9]: 1.9 µM
- TGI [9]: 3.74 µM
- GI50 [10]: 2.39 µM
- TGI [10]: 6.25 µM

SMILES: CCCCN(CCCC)P(=O)(Oc1ccccc1)Oc1ccccc1
- GI50 [1]: 5.53 µM
- TGI [1]: 19.7 µM
- GI50 [2]: 3.49 µM
- TGI [2]: 16.1 µM
- GI50 [3]: 14.9 µM
- TGI [3]: 33.6 µM
- GI50 [4]: 10.4 µM
- TGI [4]: 25.4 µM
- GI50 [5]: 8.82 µM
- TGI [5]: 23.5 µM
- GI50 [6]: 10 µM
- TGI [6]: 22.2 µM
- GI50 [7]: 8.86 µM
- TGI [7]: 21.9 µM
- GI50 [8]: 3.79 µM
- TGI [8]: 17.6 µM
- GI50 [9]: 11.9 µM
- TGI [9]: 25.7 µM
- GI50 [10]: 7.46 µM
- TGI [10]: 33.1 µM

SMILES: Oc1ccc(N=Nc2ccc(Br)cc2)c(O)c1
- GI50 [1]: 6.54 µM
- TGI [1]: 50 µM
- GI50 [2]: 2.64 µM
- TGI [2]: 11.5 µM
- GI50 [3]: 3.24 µM
- TGI [3]: 18.3 µM
- GI50 [4]: 7.91 µM
- TGI [4]: 42.9 µM
- GI50 [5]: 4 µM
- TGI [5]: 68.8 µM
- GI50 [6]: 3.55 µM
- TGI [6]: 12 µM
- GI50 [7]: 5.84 µM
- TGI [7]: > 100 µM
- GI50 [8]: 3.08 µM
- TGI [8]: 21.7 µM
- GI50 [9]: 3.01 µM
- TGI [9]: 20.8 µM
- GI50 [10]: 2.93 µM
- TGI [10]: 42.3 µM

SMILES: Cc1[nH]c2ccccc2c1CO
- GI50 [1]: 15.8 µM
- TGI [1]: 32.1 µM
- GI50 [2]: 22.5 µM
- TGI [2]: 44.7 µM
- GI50 [3]: 35.1 µM
- TGI [3]: > 100 µM
- GI50 [4]: 25.8 µM
- TGI [4]: 93.9 µM
- GI50 [5]: 39.3 µM
- TGI [5]: > 100 µM
- GI50 [6]: 21.2 µM
- TGI [6]: 47.2 µM
- GI50 [7]: 10.2 µM
- TGI [7]: 22.9 µM
- GI50 [8]: 17 µM
- TGI [8]: 43.7 µM
- GI50 [9]: 17.2 µM
- TGI [9]: 37.4 µM
- GI50 [10]: 29.3 µM
- TGI [10]: > 100 µM

SMILES: Oc1nc(N2CCOCC2)sc1/C=C1\C=Nc2ccccc21
- GI50 [1]: > 100 µM
- TGI [1]: > 100 µM
- GI50 [2]: > 100 µM
- TGI [2]: > 100 µM
- GI50 [3]: > 100 µM
- TGI [3]: > 100 µM
- GI50 [4]: > 100 µM
- TGI [4]: > 100 µM
- GI50 [5]: > 100 µM
- TGI [5]: > 100 µM
- GI50 [6]: > 100 µM
- TGI [6]: > 100 µM
- GI50 [7]: > 100 µM
- TGI [7]: > 100 µM
- GI50 [8]: > 100 µM
- TGI [8]: > 100 µM
- GI50 [9]: > 100 µM
- TGI [9]: > 100 µM
- GI50 [10]: > 100 µM
- TGI [10]: > 100 µM

SMILES: CC(C)[C@@]12C[C@@H](OC(=O)C3CO3)[C@@](C)(O1)[C@@H]1CC[C@@H](C)[C@H]1[C@@H]2OC(=O)/C=C/c1ccccc1 (some centres undefined)
- GI50 [1]: 11.9 µM
- TGI [1]: 32.5 µM
- GI50 [2]: 16.9 µM
- TGI [2]: 32.2 µM
- GI50 [3]: 18.6 µM
- TGI [3]: 46.8 µM
- GI50 [4]: 13.5 µM
- TGI [4]: 29.3 µM
- GI50 [5]: 16.6 µM
- TGI [5]: 33.4 µM
- GI50 [6]: 18.7 µM
- TGI [6]: 35.8 µM
- GI50 [7]: 12.1 µM
- TGI [7]: 40.2 µM
- GI50 [8]: 17.4 µM
- TGI [8]: 61 µM
- GI50 [9]: 14.9 µM
- TGI [9]: 34.4 µM
- GI50 [10]: 18.8 µM
- TGI [10]: > 100 µM

— PubChem BioAssay (NCI)
